The values below come from patent US6784153B1, “Methods of homing molecules to lung using membrane dipeptidase” (The Burnham Institute, priority 1998, dated 2004).

Assay [1] relates to pancreas. Kind of assay: immunohistologic analysis of pancreas homing phage. The class given is in vivo, mice. The procedure: Phage displaying homing peptides were detected in lung, pancreas and skin by immunostaining histologic sections obtained 5 min after administration of phage expressing a lung, pancreas or skin homing peptide (“peptide-phage”) to a mouse. Following administration of the peptide-phage, mice were handled as described above and various organs, including lung, pancreas and skin, were removed and fixed in Bouin's solution (SIGMA). Histologic sections were prepared and reacted with anti-M13 (phage) antibodies (Pharmacia Biotech; see U.S. Pat. No. 5,622,699, supra, 1997; Pasqualini and Ruoslahti, supra, 1996). Visualization of the bound anti-M13 antibody was performed using a second antibody conjugated to peroxidase (SIGMA) according to the manufacturer's instructions.
(§1) Similar experiments were performed in pancreas using phage displaying the pancreas homing peptide, SWCEPGWCR (SEQ ID NO: 4). In these experiments, histological samples of the pancreas as well as control organs and tissues including lung and skin were prepared and examined by immunostaining as described above. […] Moreover, after intravenous injection of phage displaying SWCEPGWCR (SEQ ID NO: 4), the phage was recovered from uterus at a 6× higher level in comparison to unselected phage. Thus, SWCEPGWCR (SEQ ID NO: 4) homes to both pancreas and uterus.

The test system of a further assay is uterus. Kind of assay: homing of pancreas homing phage to uterus. The class given is in vivo, mice. The procedure:
as §1

The test system of assay [2] is pancreas. Briefly: in vivo homing of phage displaying peptides to pancreas. Further details: species or system mice. The procedure: For lung and pancreas, a mixture of phage libraries containing 10^10 TU was diluted in 200 μl DMEM and injected into the tail vein of anesthetized BALB/c mice (2 month old; Harlan Sprague Dawley; San Diego Calif.); AVERTIN (0.017 ml/g) was used as anesthetic (Pasqualini and Ruoslahti, supra, 1996). After 1-4 minutes, mice were snap frozen in liquid nitrogen or, after about 5 minutes of phage circulation, the mice were perfused through the heart with 5-10 ml of DMEM (SIGMA; St. Louis Mo.). To recover the phage, the organs from the perfused mice or partially thawed organs from snap frozen mice were collected and weighed, then were homogenized in 1 ml DMEM-PI (DMEM containing protease inhibitors (PI); phenylmethyl sulfonyl fluoride (PMSF; 1 mM), aprotinin (20 μg/ml), leupeptin (1 μg/ml)).
Organ samples were washed 3 times with ice cold DMEM-PI containing 1% bovine serum albumin (BSA), then directly incubated with 1 ml K91-kan bacteria for 1 hr. Ten ml NZY medium containing 0.2 μg/ml tetracycline (NZY/tet) was added to the bacterial culture, the mixture was incubated in a 37° C. shaker for 1 hr, then 200 μl aliquots were plated in agar plates containing 40 μg/ml tetracycline (tet/agar).
Approximately 250 to 300 individual bacterial colonies containing phage recovered from the various organs or tissues were grown for 16 hr in 5 ml NZY/tet. In some experiments, approximately 1000 individual bacteria containing phage were picked and the phage were amplified in 2 ml of NZY/tet or the entire plate containing phage was scraped, pooled and grown in bulk and processed for injection. Where phage were cultured separately, the cultures were pooled and the phage were injected into mice or rats as described above for a second round of in vivo panning. In some experiments, a third or fourth round of panning was performed. Phage DNA was purified from individual bacterial colonies obtained and the DNA sequences encoding the peptides expressed by selected phage were determined (see Koivunen et al., supra, 1994b).
After two or three rounds of in vivo panning of mice injected with a cyclic CX7C (SEQ ID NO: 24) phage display library, various pancreas homing peptides were identified (Table 3). In particular, the peptide sequence SWCEPGWCR (SEQ ID NO: 4) appeared repeatedly in the pancreas. To determine the specificity of SWCEPGWCR (SEQ ID NO: 4), a phage displaying the sequence was amplified individually, diluted to the same input titer and administered to mice. Following administration, control brain organ was removed and the number of TU of phage in each pancreas and was determined.

SWCEPGWCR [pancreas homing peptide]: the immunostaining of pancreas entry in the assay with pancreas [1] (5 min after phage) was “staining in the capillaries and larger blood vessels of the exocrine pancreas”. Also, the “staining of lung and skin after pancreas homing phage” value in the assay on pancreas [1] (control tissues) was “nor was any staining observed in lung and skin”. Further, the “phage recovered from uterus in comparison to unselected phage” value in the assay with uterus (after intravenous injection) was found to be 6 ×. The staining of uterus entry in the assay on uterus (immunostaining) was “some staining of blood vessels within the uterus”. The “% OF MOTIF AMONG ALL CLONES” value with pancreas [2] (PANCREAS (value printed on the SKIN heading line)) stood at 9%. Further, in the assay with pancreas [2] (PANCREAS section, pancreas as compared to brain), the pancreas/brain phage ratio is 20. In addition, the “phage bound to pancreas than to brain” value in the assay with pancreas [2] (individually amplified phage) was 10 × and up to 20 ×. In addition, in the assay with pancreas [2] (mouse, in vivo), the “enrichment of phage to the pancreas as compared to unselected phage” value turned out to be 22 ×; the “selectivity for pancreas over unselected phage and over brain” value was 20 fold.
